Data: patent publication US20090123391A1, “Novel Formulations” (3M INNOVATIVE PROPERTIES COMPANY, priority 2006, published 2009)

Tests used:
[1] = Dose Through Unit (DTU) dose uniformity of MDI; format: physicochemical; conditions: for overall mean dose of medicament delivered through the actuator, combining beginning and end of use doses / overall mean dose delivered through the actuator, combined beginning and end of use: HFA 134a; for overall mean dose delivered through the actuator, combining beginning and end of use: Example 4: Compound A in combination with Compound D, HFA-134a MDI 100/100 μg/act, target output compound D 90 μg, compound A 90 μg; for overall mean dose delivered through the actuator, combined beginning and end of use: Example 5: Compound E in combination with Compound A, MDI 100/50 μg/act, target output Compound E 90 μg, Compound A 45 μg
Description: The dose collection apparatus (500 ml separatory funnel with a cotton plug) was assembled and the flow rate was set to 20 L/min. Test units were stored at ambient conditions for two weeks after manufacture prior to DTU testing. For the testing at the beginning of the unit, the MDIs were primed two times with a priming actuator and four times to waste with the test actuator, shaking the units between each actuation. Two test actuations were collected in the dose collection apparatus, shaking the unit between actuations. The collection apparatus was rinsed with an appropriate volume of diluent, and the rinsate with the collected dose was analyzed by conventional HPLC analysis. For end of unit testing, the MDIs were actuated an additional 48 times to waste, shaking between each actuation. The MDIs were then actuated four times to waste through a new test actuator. Two test actuations were then collected in the dose collection apparatus, shaking the unit between actuations. The collection apparatus was rinsed with an appropriate volume of diluent, and the rinsate with the collected dose was analyzed by conventional HPLC analysis.
The reported results are the average of ten units at both the beginning and end of unit use.

[2] = Andersen Cascade Impactor (ACI) fine particle fraction of MDI; format: physicochemical; conditions: for Fine Particle Fraction (FPF) expressed as percentage of 25 μg, the total dose target: Example 1: Compound A MDI, 25 μg/act; for Fine Particle Fraction (FPF) expressed as percentage of 25 μg, the total dose target / Fine Particle Fraction expressed as a percentage of the total dose target, for Compound B, 10 μg and for the Compound A, 25 μg / Fine Particle Fraction (FPF) expressed as a percentage of the total dose target, for Compound C, 12.5 μg and for Compound A, 25 μg / Fine Particle Fraction (FPF) expressed as percentage of the total dose target of Compound E, 100 μg and for Compound A, 50 μg: HFA 134a; for Fine Particle Fraction expressed as a percentage of the total dose target, for Compound B, 10 μg and for the Compound A, 25 μg: Example 2: Compound A in combination with Compound B; for Fine Particle Fraction expressed as a percentage of the total dose target, for Compound B, 10 μg and for the Compound A, 25 μg / Fine Particle Fraction (FPF) expressed as a percentage of the total dose target, for Compound C, 12.5 μg and for Compound A, 25 μg: MDI; for Fine Particle Fraction (FPF) expressed as a percentage of the total dose target, for Compound C, 12.5 μg and for Compound A, 25 μg: Example 3: Compound A in combination with Compound C, 25/12.5 μg/act; for Fine Particle Fraction (FPF) expressed as a percentage of the total dose target, for Compound D, 100 μg, and for Compound A, 100 μg: Example 4: Compound A in combination with Compound D, HFA-134a MDI 100/100 μg/act; for Fine Particle Fraction (FPF) expressed as percentage of the total dose target of Compound E, 100 μg and for Compound A, 50 μg: Example 5: Compound E in combination with Compound A, MDI 100/50 μg/act
From the text: The fine particle fraction of the aerosol formulations according to the invention may be measured by conventional techniques, for example, by cascade impaction by measuring particle size distribution. The Cascade Impactor is designed to mimic the human buccal cavity and bronchial tract and the cascade Impactor test is designed to reveal the amount of deposition of inhaled drug substance at various stages thereof. As used herein reference to the “cascade impaction” assay means determination of the deposition of the emitted dose in pressurised inhalations as defined in European Pharmacopoeia, Section 2.9.18, 5th edition “Preparations for Inhalation, Apparatus D”. Such techniques enable the “respirable fraction” of the aerosol formulations to be calculated. One method used to calculate the “respirable fraction” is by reference to “fine particle fraction” which is the amount of active ingredient collected in stages 3 to 5 (aerodynamic diameter 1.1-4.7 μm) which represents the lung, per actuation expressed as a percentage of the total amount of active ingredient delivered per actuation using the cascade impactor method described above. Earlier stages represent the aerosol device itself, the throat and the upper reaches of the bronchial tract, and the later stages representing potential systemic absorption through the wall of the lung which may cause serious side effects.
The Andersen Cascade Impactor Mark II (ACI) was assembled and the flow rate was set to 28.3 L/min. The units were primed four times with the test actuator prior to dose collection, shaking between actuations. Between 5 and 20 actuations were collected in the ACI assembly. The ACI was disassembled and the components were rinsed with an appropriate amount of solvent that ensures dissolution of all formulation ingredients. The rinsate was collected for analysis by conventional HPLC analysis.

[3] = 0.1% w/w of polymer of formula (II), 12 Week at 40° C./75% relative humidity
[4] = 0.1% w/w of polymer of formula (II), Initial
[5] = surfactant-free, 12 Week at 40° C./75% relative humidity

C[C@@H]1C[C@H]2[C@@H]3C[C@H](F)C4=CC(=O)C=C[C@]4(C)[C@@]3(F)[C@@H](O)C[C@]2(C)[C@@]1(OC(=O)c1ccco1)C(=O)SCF [Compound A, 6α, 9α-Difluoro-17α-[(2-furanylcarbonyl)oxy]-11β-hydroxy-16α-methyl-3-oxo-androsta-1,4-diene-17β-carbothioic acid S-fluoromethyl ester]
overall mean dose of medicament delivered through the actuator, combining beginning and end of use doses ([1]; Example 1: Compound A MDI, 25 μg/act, 0.1% w/w of polymer of formula (II), 12 Week at 40° C./75% relative humidity, target output 22.5 μg/act): 98% | overall mean dose of medicament delivered through the actuator, combining beginning and end of use doses ([1]; Example 1: Compound A MDI, 25 μg/act, 0.1% w/w of polymer of formula (II), Initial, target output 22.5 μg/act): 98% | overall mean dose of medicament delivered through the actuator, combining beginning and end of use doses ([1]; Example 1: Compound A MDI, 25 μg/act, surfactant-free, 12 Week at 40° C./75% relative humidity, target output 22.5 μg/act): 72% | overall mean dose of medicament delivered through the actuator, combining beginning and end of use doses ([1]; Example 1: Compound A MDI, 25 μg/act, surfactant-free, Initial, target output 22.5 μg/act): 66% | overall mean dose of medicament delivered through the actuator, combining beginning and end of use doses ([1]; Example 2: Compound A in combination with Compound B, MDI, 25/10 μg/act, 0.1% w/w of polymer of formula (II), 12 Week at 40° C./75% relative humidity, target output Compound B 8.5 μg, Compound A 22.5 μg): 110% | overall mean dose of medicament delivered through the actuator, combining beginning and end of use doses ([1]; Example 2: Compound A in combination with Compound B, MDI, 25/10 μg/act, 0.1% w/w of polymer of formula (II), Initial, target output Compound B 8.5 μg, Compound A 22.5 μg): 107% | overall mean dose of medicament delivered through the actuator, combining beginning and end of use doses ([1]; Example 2: Compound A in combination with Compound B, MDI, 25/10 μg/act, surfactant-free, 12 Week at 40° C./75% relative humidity, target output Compound B 8.5 μg, Compound A 22.5 μg): 62% | overall mean dose of medicament delivered through the actuator, combining beginning and end of use doses ([1]; Example 2: Compound A in combination with Compound B, MDI, 25/10 μg/act, surfactant-free, Initial, target output Compound B 8.5 μg, Compound A 22.5 μg): 63% | overall mean dose of medicament delivered through the actuator, combining beginning and end of use doses ([1]; Example 3: Compound A in combination with Compound C, MDI, 25/12.5 μg/act, 0.1% w/w polymer of formula (II), 12 Week at 40° C./75 relative humidity, target output Compound C 11.3 μg, Compound A 22.5 μg): 107% | overall mean dose of medicament delivered through the actuator, combining beginning and end of use doses ([1]; Example 3: Compound A in combination with Compound C, MDI, 25/12.5 μg/act, 0.1% w/w polymer of formula (II), Initial, target output Compound C 11.3 μg, Compound A 22.5 μg): 101% | overall mean dose of medicament delivered through the actuator, combining beginning and end of use doses ([1]; Example 3: Compound A in combination with Compound C, MDI, 25/12.5 μg/act, surfactant-free, 12 Week at 40° C./75 relative humidity, target output Compound C 11.3 μg, Compound A 22.5 μg): 76% | overall mean dose of medicament delivered through the actuator, combining beginning and end of use doses ([1]; Example 3: Compound A in combination with Compound C, MDI, 25/12.5 μg/act, surfactant-free, Initial, target output Compound C 11.3 μg, Compound A 22.5 μg): 75% | overall mean dose delivered through the actuator, combining beginning and end of use [1, 3]: 111% | overall mean dose delivered through the actuator, combining beginning and end of use [1, 4]: 106% | overall mean dose delivered through the actuator, combined beginning and end of use [1, 3]: 109% | overall mean dose delivered through the actuator, combined beginning and end of use [1, 4]: 104% | Fine Particle Fraction (FPF) expressed as percentage of 25 μg, the total dose target [2, 3]: 22% | Fine Particle Fraction (FPF) expressed as percentage of 25 μg, the total dose target [2, 4]: 24% | Fine Particle Fraction (FPF) expressed as percentage of 25 μg, the total dose target [2, 5]: 16% | Fine Particle Fraction (FPF) expressed as percentage of 25 μg, the total dose target ([2]; surfactant-free, Initial): 17% | Fine Particle Fraction expressed as a percentage of the total dose target, for Compound B, 10 μg and for the Compound A, 25 μg [2, 3]: 35% | Fine Particle Fraction expressed as a percentage of the total dose target, for Compound B, 10 μg and for the Compound A, 25 μg [2, 4]: 32% | Fine Particle Fraction expressed as a percentage of the total dose target, for Compound B, 10 μg and for the Compound A, 25 μg [2, 5]: 18% | Fine Particle Fraction expressed as a percentage of the total dose target, for Compound B, 10 μg and for the Compound A, 25 μg ([2]; surfactant-free, Initial): 18% | Fine Particle Fraction (FPF) expressed as a percentage of the total dose target, for Compound C, 12.5 μg and for Compound A, 25 μg ([2]; 0.1% w/w polymer of formula (II), 12 Week 40° C./75 relative humidity): 20% | Fine Particle Fraction (FPF) expressed as a percentage of the total dose target, for Compound C, 12.5 μg and for Compound A, 25 μg ([2]; 0.1% w/w polymer of formula (II), Initial): 21% | Fine Particle Fraction (FPF) expressed as a percentage of the total dose target, for Compound C, 12.5 μg and for Compound A, 25 μg ([2]; surfactant-free, 12 Week 40° C./75 relative humidity): 16% | Fine Particle Fraction (FPF) expressed as a percentage of the total dose target, for Compound C, 12.5 μg and for Compound A, 25 μg ([2]; surfactant-free, Initial): 11% | Fine Particle Fraction (FPF) expressed as a percentage of the total dose target, for Compound D, 100 μg, and for Compound A, 100 μg [2, 3]: 19% | Fine Particle Fraction (FPF) expressed as a percentage of the total dose target, for Compound D, 100 μg, and for Compound A, 100 μg [2, 4]: 21% | Fine Particle Fraction (FPF) expressed as percentage of the total dose target of Compound E, 100 μg and for Compound A, 50 μg [2, 3]: 22% | Fine Particle Fraction (FPF) expressed as percentage of the total dose target of Compound E, 100 μg and for Compound A, 50 μg [2, 4]: 23%
